Measurements reported in US20160280731A1, “CRYSTALLINE FORMS B, C, and D OF CANAGLIFLOZIN” (CRYSTAL PHARMATECH CO., LTD, priority 2013, published 2016).
Values after ≈ are worked out from the molar mass of the structure shown.

Columns and labels:
[1] = Stability assessment of Form B under stress conditions (XRPD after storage); assay type: physicochemical; conditions: 30 days; for Final form: dish open, XRPD
Description: Two samples of canagliflozin Form B were stored under 25° C./60% RH and 40° C./75% RH, respectively, with dish open for 30 days. The solid samples were analyzed by XRPD.

[2] = Kinetic solubility in FeSSIF and FaSSIF; assay type: physicochemical; conditions: for Solubility in comparison to the hemihydrate form (WO2008069327A1): FeSSIF and FaSSIF, 1 h, 4 h, 24 h; for Solubility in comparison to the hemihydrate form (WO2008069327A1) / solubility at 1 h / solubility at 4 h / solubility at 24 h: RT; for solubility at 1 h / solubility at 4 h / solubility at 24 h: thermodynamic from solid
Description: Kinetic solubility of canagliflozin in crystalline Form B and its hemihydrate form in fed state simulated intestinal fluid (FeSSIF) and fasted state simulated intestinal fluid (FaSSIF) were measured using the following procedures:
1. Weighed approximately 30 mg of compound into a tared 4 mL plastic vial and recorded the actual weight of the compound.
2. Added 3 mL of water or bio-relevant medium into each vial.
3. Covered the vials with caps and kept all the suspension samples stirring at RT using a rolling incubator with a speed of 25 r/min.
4. Sampled at 1 h, 4 h and 24 h respectively.
5. Centrifuged the filtration tubes in a speed of 8500 rpm for 3 minutes at RT, collected 0.2 mL supernatant for HPLC quantification determination and the rest of solution for pH measurement, and separated the solid for XRPD characterization.
Kinetic solubility of canagliflozin Form C and hemihydrate in fed state simulated intestinal fluid (FeSSIF) and fasted state simulated intestinal fluid (FaSSIF) were measured using the following procedures:
5. Centrifuged filtration tubes in a speed of 8500 rpm for 3 minutes at RT, collected 0.2 mL supernatant for HPLC quantification determination and the rest of solution for pH measurement, and separated the solid for XRPD characterization.

Row | Structure (SMILES) | Stability under the stress conditions ([1]; 25° C./60% RH and 40° C./75% RH) | Final form ([1]; stored under 25° C./60% RH) | Final form ([1]; stored under 40° C./75% RH) | Solubility in comparison to the hemihydrate form (WO2008069327A1) [2] | solubility at 1 h ([2]; fasted state simulated intestinal fluid (FaSSIF), fassif, time point 1 h) [µg/mL] | solubility at 4 h ([2]; fasted state simulated intestinal fluid (FaSSIF), fassif, time point 4 h) [µg/mL] | solubility at 24 h ([2]; fasted state simulated intestinal fluid (FaSSIF), fassif, time point 24 h) [µg/mL] | solubility at 1 h ([2]; fed state simulated intestinal fluid (FeSSIF), fessif, time point 1 h) [µg/mL] | solubility at 4 h ([2]; fed state simulated intestinal fluid (FeSSIF), fessif, time point 4 h) [µg/mL] | solubility at 24 h ([2]; fed state simulated intestinal fluid (FeSSIF), fessif, time point 24 h) [µg/mL] | Solubility at RT ([2]; FaSSIF, time point 1 h) [µg/mL] | Solubility at RT ([2]; FaSSIF, time point 4 h) [µg/mL] | Solubility at RT ([2]; FaSSIF, time point 24 h) [µg/mL] | Solubility at RT ([2]; FeSSIF, time point 1 h) [µg/mL] | Solubility at RT ([2]; FeSSIF, time point 4 h) [µg/mL] | Solubility at RT ([2]; FeSSIF, time point 24 h) [µg/mL]
1 | Cc1ccc([C@@H]2O[C@H](CO)[C@@H](O)[C@H](O)[C@H]2O)cc1Cc1ccc(-c2ccc(F)cc2)s1 [Form B, (2S,3R,4R,5S,6R)-2-{3-[5-[4-fluoro-phenyl)-thiophen-2-ylmethyl]-4-methyl-phenyl -}-6-hydroxymethyl-tetrahydro-pyran-3,4,5-triol] | stable | Form B | Form B | higher solubility | 500 (≈ 1.12 mM) | 510 (≈ 1.15 mM) | 480 (≈ 1.08 mM) | 4720 (≈ 10.6 mM) | 4760 (≈ 10.7 mM) | 4350 (≈ 9.79 mM) | – | – | – | – | – | –
2 | Cc1ccc([C@@H]2O[C@H](CO)[C@@H](O)[C@H](O)[C@H]2O)cc1Cc1ccc(-c2ccc(F)cc2)s1 [Form C, (2S,3R,4R,5S,6R)-2-{3-[5-[4-fluoro-phenyl)-thiophen-2-ylmethyl]-4-methyl-phenyl -}-6-hydroxymethyl-tetrahydro-pyran-3,4,5-triol] | – | – | – | higher solubility | – | – | – | – | – | – | 410 (≈ 0.922 mM) | 440 (≈ 0.99 mM) | 420 (≈ 0.945 mM) | 4600 (≈ 10.3 mM) | 4700 (≈ 10.6 mM) | 4500 (≈ 10.1 mM)
3 | Cc1ccc([C@@H]2O[C@H](CO)[C@@H](O)[C@H](O)[C@H]2O)cc1Cc1ccc(-c2ccc(F)cc2)s1 [WO2008069327A1 hemihydrate, (2S,3R,4R,5S,6R)-2-{3-[5-[4-fluoro-phenyl)-thiophen-2-ylmethyl]-4-methyl-phenyl -}-6-hydroxymethyl-tetrahydro-pyran-3,4,5-triol, reference compound] | – | – | – | – | – | – | – | – | – | – | 360 | 370 | 370 | 3340 | 3500 | 3700
